Our source for the Activity values is ChEMBL document CHEMBL1150976, “The selectivity of protein kinase inhibitors: a further update” (Biochem J, 2007).

For one assay, the species on record is Rattus norvegicus. As to the kind of experiment: Percentage AMPK activity remaining in the presence of 0.01uM inhibitor.
For assay [1], the target named is Calcium/calmodulin-dependent protein kinase kinase 2 (Homo sapiens) (UniProt Q96RR4). The assay is described as follows: Percentage CaMKKbeta activity remaining in the presence of 0.01uM inhibitor.
Calcium/calmodulin-dependent protein kinase kinase 2 (Homo sapiens), sequence (Q96RR4 2-588 limits assumed): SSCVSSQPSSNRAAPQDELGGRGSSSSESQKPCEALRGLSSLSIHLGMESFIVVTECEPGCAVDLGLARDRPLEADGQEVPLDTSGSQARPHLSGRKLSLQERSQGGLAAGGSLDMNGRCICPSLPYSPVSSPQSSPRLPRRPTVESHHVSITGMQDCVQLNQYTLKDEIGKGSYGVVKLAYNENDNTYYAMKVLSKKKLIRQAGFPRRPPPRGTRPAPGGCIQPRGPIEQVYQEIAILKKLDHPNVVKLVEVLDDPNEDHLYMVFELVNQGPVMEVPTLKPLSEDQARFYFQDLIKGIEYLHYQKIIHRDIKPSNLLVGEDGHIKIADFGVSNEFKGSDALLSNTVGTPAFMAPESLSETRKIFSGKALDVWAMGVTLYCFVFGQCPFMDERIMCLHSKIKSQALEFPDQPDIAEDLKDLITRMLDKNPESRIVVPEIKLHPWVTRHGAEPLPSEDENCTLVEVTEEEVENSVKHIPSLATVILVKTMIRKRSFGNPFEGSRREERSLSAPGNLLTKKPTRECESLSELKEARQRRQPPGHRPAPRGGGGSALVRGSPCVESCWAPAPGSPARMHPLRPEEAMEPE
In assay [2] the target is Dual specificity mitogen-activated protein kinase kinase 1 (Homo sapiens) (UniProt Q02750). As to the kind of experiment: Percentage MKK1 activity remaining in the presence of 0.01uM inhibitor.
Dual specificity mitogen-activated protein kinase kinase 1 (Homo sapiens), sequence (Q02750 whole entry): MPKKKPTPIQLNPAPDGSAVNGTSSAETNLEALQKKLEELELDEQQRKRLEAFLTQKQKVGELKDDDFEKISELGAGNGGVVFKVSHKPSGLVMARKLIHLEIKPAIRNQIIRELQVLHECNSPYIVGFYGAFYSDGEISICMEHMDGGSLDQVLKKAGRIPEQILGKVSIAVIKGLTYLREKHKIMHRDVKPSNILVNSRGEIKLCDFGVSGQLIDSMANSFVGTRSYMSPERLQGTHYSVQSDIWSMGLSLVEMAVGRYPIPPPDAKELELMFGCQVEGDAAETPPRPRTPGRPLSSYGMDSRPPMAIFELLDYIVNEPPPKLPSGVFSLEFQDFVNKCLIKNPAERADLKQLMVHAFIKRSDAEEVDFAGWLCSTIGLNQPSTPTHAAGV
For assay [3], the target named is cAMP-dependent protein kinase catalytic subunit alpha (Homo sapiens, UniProt P17612). The assay is described as follows: Percentage PKA activity remaining in the presence of 0.01uM inhibitor.
Assay [4] deals with T1, MAP kinase-activated protein kinase 5 (Homo sapiens) (UniProt Q8IW41).
T1 sequence (whole entry): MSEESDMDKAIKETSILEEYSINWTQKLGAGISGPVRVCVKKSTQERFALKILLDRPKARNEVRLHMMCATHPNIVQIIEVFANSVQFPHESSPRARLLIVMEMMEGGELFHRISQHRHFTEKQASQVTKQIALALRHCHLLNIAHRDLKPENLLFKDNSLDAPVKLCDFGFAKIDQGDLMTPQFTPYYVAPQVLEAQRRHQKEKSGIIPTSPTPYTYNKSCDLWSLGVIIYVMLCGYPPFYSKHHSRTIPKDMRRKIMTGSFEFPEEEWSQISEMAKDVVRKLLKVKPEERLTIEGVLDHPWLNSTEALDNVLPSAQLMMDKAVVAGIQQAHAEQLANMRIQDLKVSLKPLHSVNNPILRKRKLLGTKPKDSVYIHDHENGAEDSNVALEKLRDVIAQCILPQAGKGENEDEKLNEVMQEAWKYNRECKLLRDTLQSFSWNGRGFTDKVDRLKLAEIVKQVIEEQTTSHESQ
The assay is described as follows: Percentage PRAK activity remaining in the presence of 0.01uM inhibitor.

The target in assay [5] is Mitogen-activated protein kinase 3 (Homo sapiens) (UniProt P27361). As to the kind of experiment: Percentage ERK1 activity remaining in the presence of 0.01uM inhibitor.
Mitogen-activated protein kinase 3 (Homo sapiens), sequence (P27361 whole entry): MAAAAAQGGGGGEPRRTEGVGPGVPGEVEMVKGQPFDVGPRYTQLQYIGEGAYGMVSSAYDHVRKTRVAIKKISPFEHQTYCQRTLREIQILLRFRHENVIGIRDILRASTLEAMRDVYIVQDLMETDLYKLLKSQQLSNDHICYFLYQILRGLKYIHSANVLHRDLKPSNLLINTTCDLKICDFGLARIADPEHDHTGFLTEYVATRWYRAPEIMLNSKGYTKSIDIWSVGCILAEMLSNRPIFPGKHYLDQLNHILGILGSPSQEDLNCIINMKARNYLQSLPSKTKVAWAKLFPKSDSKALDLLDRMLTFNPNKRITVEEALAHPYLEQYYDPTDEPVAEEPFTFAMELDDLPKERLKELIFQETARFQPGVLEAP
The target of assay [6] is RAC-alpha serine/threonine-protein kinase (Homo sapiens) (UniProt P31749). As to the kind of experiment: Percentage PKBalpha activity remaining in the presence of 0.01uM inhibitor.
RAC-alpha serine/threonine-protein kinase (Homo sapiens), sequence (P31749 whole entry): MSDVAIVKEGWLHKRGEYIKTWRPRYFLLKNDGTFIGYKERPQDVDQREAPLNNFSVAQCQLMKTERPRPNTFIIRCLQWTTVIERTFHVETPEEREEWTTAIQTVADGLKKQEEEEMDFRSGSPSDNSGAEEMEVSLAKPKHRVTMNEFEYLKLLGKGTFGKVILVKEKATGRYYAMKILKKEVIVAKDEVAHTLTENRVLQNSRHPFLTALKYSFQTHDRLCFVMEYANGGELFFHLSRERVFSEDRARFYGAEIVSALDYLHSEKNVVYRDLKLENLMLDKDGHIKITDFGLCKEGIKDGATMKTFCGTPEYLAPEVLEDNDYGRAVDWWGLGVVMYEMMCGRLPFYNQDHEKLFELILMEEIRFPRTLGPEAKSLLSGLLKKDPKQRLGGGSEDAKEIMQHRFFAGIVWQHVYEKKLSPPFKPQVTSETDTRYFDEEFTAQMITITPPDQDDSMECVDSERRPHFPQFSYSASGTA
In assay [7] the target is Mitogen-activated protein kinase 11 (Homo sapiens) (UniProt Q15759). The assay is described as follows: Percentage p38beta activity remaining in the presence of 25uM inhibitor.
Mitogen-activated protein kinase 11 (Homo sapiens), sequence (Q15759 whole entry): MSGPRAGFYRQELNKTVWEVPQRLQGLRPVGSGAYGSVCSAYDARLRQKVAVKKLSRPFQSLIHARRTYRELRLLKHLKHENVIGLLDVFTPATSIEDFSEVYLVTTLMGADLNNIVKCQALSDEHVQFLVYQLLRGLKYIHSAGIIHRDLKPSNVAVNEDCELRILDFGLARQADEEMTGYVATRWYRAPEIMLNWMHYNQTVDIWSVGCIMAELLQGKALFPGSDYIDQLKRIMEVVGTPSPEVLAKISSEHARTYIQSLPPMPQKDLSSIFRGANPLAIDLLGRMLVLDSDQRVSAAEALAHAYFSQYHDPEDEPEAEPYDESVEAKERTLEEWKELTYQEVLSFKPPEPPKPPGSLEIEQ
Assay [8] concerns the target Serine/threonine-protein kinase pim-2 (Homo sapiens, UniProt Q9P1W9). The assay is described as follows: Percentage PIM2 activity remaining in the presence of 25uM inhibitor.
For assay [9], the target named is T2, Eukaryotic elongation factor 2 kinase (Homo sapiens) (UniProt O00418).
T2 sequence (whole entry): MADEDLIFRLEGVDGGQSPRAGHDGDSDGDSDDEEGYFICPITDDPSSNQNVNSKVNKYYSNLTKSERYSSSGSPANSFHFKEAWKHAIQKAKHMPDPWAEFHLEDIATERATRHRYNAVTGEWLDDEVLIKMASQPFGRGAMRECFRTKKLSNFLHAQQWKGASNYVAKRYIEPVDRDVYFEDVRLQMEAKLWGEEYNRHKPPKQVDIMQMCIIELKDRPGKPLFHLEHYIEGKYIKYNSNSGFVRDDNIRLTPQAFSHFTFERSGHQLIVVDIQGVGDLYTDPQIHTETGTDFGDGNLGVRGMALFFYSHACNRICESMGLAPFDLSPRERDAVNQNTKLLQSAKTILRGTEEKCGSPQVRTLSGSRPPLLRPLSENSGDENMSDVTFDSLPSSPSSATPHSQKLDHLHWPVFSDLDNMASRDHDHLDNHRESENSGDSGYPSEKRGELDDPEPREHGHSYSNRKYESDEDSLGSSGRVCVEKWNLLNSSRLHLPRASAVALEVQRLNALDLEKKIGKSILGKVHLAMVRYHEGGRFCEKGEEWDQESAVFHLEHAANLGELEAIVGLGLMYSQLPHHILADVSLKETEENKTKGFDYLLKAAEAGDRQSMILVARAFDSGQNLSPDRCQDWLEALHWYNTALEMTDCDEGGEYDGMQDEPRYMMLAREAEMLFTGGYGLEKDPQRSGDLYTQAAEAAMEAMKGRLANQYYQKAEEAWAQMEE
As to the kind of experiment: Percentage EF2K activity remaining in the presence of 25uM inhibitor.

The target in assay [10] is Ribosomal protein S6 kinase alpha-5 (Homo sapiens) (UniProt O75582). The assay is described as follows: Percentage MSK1 activity remaining in the presence of 25uM inhibitor.
Ribosomal protein S6 kinase alpha-5 (Homo sapiens), sequence (O75582 whole entry, looked up): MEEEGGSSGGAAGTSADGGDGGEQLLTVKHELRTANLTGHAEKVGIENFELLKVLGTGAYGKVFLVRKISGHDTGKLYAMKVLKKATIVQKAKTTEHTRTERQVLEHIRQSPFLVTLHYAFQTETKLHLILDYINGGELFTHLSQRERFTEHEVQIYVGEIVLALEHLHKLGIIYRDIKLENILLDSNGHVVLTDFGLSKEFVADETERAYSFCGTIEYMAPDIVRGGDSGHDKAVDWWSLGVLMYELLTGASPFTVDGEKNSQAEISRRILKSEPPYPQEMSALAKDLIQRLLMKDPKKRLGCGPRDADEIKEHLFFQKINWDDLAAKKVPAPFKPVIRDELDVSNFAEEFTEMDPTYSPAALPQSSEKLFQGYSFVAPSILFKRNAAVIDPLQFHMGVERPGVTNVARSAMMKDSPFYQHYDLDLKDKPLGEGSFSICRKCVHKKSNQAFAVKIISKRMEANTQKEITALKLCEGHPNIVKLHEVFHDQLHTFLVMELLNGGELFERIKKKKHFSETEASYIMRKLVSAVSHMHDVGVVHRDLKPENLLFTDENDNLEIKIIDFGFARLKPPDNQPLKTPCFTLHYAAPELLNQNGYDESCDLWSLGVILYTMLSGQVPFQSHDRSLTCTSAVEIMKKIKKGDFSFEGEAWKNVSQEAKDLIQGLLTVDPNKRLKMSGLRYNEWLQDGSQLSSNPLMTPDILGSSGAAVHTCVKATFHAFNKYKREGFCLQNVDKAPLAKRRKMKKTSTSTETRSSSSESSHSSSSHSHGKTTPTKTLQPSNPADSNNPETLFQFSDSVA
Assay [11] deals with T3, Protein kinase C zeta type (Homo sapiens) (UniProt Q05513).
T3 sequence (whole entry): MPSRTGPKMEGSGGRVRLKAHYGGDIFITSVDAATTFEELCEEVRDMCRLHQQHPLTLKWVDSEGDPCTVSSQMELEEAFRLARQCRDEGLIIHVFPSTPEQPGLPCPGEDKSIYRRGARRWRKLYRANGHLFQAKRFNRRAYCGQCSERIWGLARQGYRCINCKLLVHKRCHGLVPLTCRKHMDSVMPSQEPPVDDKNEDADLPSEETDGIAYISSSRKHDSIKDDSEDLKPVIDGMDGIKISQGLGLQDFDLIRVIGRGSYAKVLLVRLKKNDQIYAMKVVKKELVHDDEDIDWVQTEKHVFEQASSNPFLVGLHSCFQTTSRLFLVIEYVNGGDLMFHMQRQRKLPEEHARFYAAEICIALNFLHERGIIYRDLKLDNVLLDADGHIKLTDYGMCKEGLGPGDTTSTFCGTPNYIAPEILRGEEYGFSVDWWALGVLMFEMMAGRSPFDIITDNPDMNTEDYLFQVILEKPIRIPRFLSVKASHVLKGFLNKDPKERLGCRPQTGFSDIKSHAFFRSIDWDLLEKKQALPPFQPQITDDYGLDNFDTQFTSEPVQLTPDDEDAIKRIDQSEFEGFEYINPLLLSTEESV
The assay is described as follows: Percentage PKCzeta activity remaining in the presence of 25uM inhibitor.

Assay [12] deals with Serine/threonine-protein kinase Chk2 (Homo sapiens) (UniProt O96017). The assay is described as follows: Percentage CHK2 activity remaining in the presence of 25uM inhibitor.
Serine/threonine-protein kinase Chk2 (Homo sapiens), sequence (O96017 whole entry): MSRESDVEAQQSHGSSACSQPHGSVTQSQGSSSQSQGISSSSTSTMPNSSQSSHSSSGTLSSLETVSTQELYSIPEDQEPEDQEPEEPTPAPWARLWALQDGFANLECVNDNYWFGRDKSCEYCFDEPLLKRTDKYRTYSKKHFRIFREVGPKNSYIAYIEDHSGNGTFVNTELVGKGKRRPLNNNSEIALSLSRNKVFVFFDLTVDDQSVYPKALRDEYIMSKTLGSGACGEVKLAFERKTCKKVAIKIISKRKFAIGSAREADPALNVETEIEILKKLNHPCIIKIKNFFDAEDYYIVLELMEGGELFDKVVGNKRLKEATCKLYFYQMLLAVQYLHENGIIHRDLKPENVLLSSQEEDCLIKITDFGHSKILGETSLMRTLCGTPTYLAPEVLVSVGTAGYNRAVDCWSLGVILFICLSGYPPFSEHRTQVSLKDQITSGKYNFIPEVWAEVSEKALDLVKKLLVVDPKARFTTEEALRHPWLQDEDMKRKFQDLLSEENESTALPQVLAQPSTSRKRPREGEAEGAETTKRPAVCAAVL
For assay [13], the target named is MAP/microtubule affinity-regulating kinase 3 (Homo sapiens) (UniProt P27448). The assay is described as follows: Percentage MARK3 activity remaining in the presence of 0.01uM inhibitor. The settings on record: filed as antagonist.
MAP/microtubule affinity-regulating kinase 3 (Homo sapiens), sequence (P27448 whole entry, looked up): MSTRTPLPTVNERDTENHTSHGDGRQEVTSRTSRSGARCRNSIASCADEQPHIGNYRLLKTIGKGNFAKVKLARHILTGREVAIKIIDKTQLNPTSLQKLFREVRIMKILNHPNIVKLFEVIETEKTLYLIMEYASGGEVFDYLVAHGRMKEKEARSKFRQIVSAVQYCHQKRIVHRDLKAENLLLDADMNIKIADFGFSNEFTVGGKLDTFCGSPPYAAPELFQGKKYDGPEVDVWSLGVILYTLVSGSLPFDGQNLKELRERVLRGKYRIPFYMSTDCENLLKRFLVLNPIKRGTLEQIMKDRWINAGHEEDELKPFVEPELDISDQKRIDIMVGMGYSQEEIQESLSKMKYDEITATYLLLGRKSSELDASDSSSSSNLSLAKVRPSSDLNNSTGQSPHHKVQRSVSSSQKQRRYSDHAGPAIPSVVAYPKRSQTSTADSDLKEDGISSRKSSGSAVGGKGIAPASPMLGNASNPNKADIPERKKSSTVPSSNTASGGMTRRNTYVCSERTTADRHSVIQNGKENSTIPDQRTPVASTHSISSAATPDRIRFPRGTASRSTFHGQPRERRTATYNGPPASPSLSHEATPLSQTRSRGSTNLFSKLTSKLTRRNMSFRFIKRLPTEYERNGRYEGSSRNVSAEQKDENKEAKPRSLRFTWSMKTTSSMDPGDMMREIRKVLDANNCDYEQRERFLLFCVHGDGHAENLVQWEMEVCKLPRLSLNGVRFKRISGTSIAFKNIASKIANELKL
In assay [14] the target is Serine/threonine-protein kinase Chk2 (Homo sapiens) (UniProt O96017). As to the kind of experiment: Percentage CHK2 activity remaining in the presence of 0.01uM inhibitor.

Serine/threonine-protein kinase pim-2, sequence (Q9P1W9 whole entry, looked up): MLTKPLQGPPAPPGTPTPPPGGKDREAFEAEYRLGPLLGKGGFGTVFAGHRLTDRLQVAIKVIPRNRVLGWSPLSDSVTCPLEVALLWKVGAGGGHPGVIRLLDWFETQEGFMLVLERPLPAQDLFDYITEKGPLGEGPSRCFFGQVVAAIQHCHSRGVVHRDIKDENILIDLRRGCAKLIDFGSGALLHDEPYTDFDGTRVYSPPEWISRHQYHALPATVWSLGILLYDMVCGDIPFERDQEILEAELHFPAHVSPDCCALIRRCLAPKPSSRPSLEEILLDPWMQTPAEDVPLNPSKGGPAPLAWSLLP

Take `Cc1n[nH]c2ccc(-c3cncc(OC[C@@H](N)Cc4c[nH]c5ccccc45)c3)cc12`: the Activity in the assay listed under Rattus norvegicus is 84%; in assay [1], 83%; in [2], 84%; in assay [3] (filed as antagonist), 26%; in assay [4], 107%; in [5], 77%. Further, the Activity in assay [6] (filed as antagonist) was 5%.
In the case of `COc1cc(OC)c(/C=C2/C(=O)Nc3ccccc32)c(OC)c1`, the Activity was determined as 97% in assay [7]; 75% in [8]; 100% in assay [9]; 88% in assay [10]; 80% in [11]; 76% in assay [12].
For the compound `O=C(NCCCNc1nc(Nc2cccc(NC(=O)N3CCCC3)c2)ncc1I)c1cccs1`, the Activity turned out to be 52% in the assay filed under Rattus norvegicus; 82% in [1]; 50% in [2]; 102% in [3]; 97% in assay [4]; 82% in assay [5]. For the same compound, the Activity is 90% in assay [6], 12% in assay [13] and 91% in assay [14].
On to `NCCNS(=O)(=O)c1ccc(Cl)c2ccncc12`, for which the Activity in assay [7] is 101%; in [8] it was 55%; in [9] it was 94%; in assay [10] (filed as antagonist), 42%; in [11], 52%; in assay [12] it was 64%.
With `CN[C@@H]1C[C@H]2O[C@@](C)([C@@H]1OC)n1c3ccccc3c3c4c(c5c6ccccc6n2c5c31)C(=O)N[C@H]4O` (stereo in doubt), the Activity is 9% in the assay filed under Rattus norvegicus (filed as antagonist); 21% in [1] (filed as antagonist); 75% in assay [2]; 63% in assay [3]; 83% in assay [4]; 112% in [5]. Further, the Activity was 79% in assay [6], 6% in assay [13] and 96% in [14].
